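A five-concentration, 48-hour dose response in 96-well plates underlies each endpoint, interpolated linearly between surrounding concentrations. The concentration for full growth arrest is given as TGI.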

In PubChem BioAssay (NCI) one finds TGI data, which are given here for eight molecules.

Test systems include A498 renal; COLO 205 colon; IGROV1 ovarian; MDA-N; SF-268 CNS; SF-295 CNS; SK-MEL-28 melanoma; SK-OV-3 ovarian; T-47D breast; U251 CNS.
What all share (assay): growth of human tumour cells (NCI), 48 h

`CCOn1c(C2(CC3CCN(C(=O)c4ccccc4)CC3)OCCO2)cc2ccccc21`: the TGI in the assay on A498 renal was determined as 26.1 µM; with COLO 205 colon, 36.3 µM; with IGROV1 ovarian, 31.7 µM; with MDA-N it was 30.1 µM; in the assay with SF-268 CNS, 35 µM; with SF-295 CNS, 30.5 µM. Moreover, the TGI in the assay with SK-MEL-28 melanoma amounted to 27.7 µM; with SK-OV-3 ovarian, 45.3 µM; with T-47D breast it was 56.2 µM; in the assay with U251 CNS, 29.9 µM.

On to `CC(C)(C)c1cc(/C=C(\C#N)C(=O)NCCO)cc(C(C)(C)C)c1O`, for which the TGI is 48.4 µM in the assay on A498 renal; 37.2 µM with COLO 205 colon; greater than 100 µM in the assay with IGROV1 ovarian; 48.7 µM in the assay on MDA-N; greater than 100 µM in the assay on SF-268 CNS; 40.8 µM in the assay on SF-295 CNS. Also, the TGI in the assay with SK-MEL-28 melanoma was 47.1 µM; in the assay on SK-OV-3 ovarian it was 60.2 µM; with T-47D breast, 76.8 µM; in the assay with U251 CNS, 39.9 µM.

On to `CCOC(=O)C(NC(=O)CC(C)C)(N1CCN(c2cc3c(cc2F)c(=O)c(C(=O)O)cn3C2CC2)CC1)C(F)(F)F` (stereo not given), for which the TGI is 16.8 µM in the assay on A498 renal; 30.3 µM in the assay with COLO 205 colon; 37.6 µM in the assay with IGROV1 ovarian; 52.3 µM in the assay on MDA-N; 40.8 µM with SF-268 CNS; 61.5 µM in the assay on SF-295 CNS. Further, the TGI was 55.5 µM in the assay with SK-MEL-28 melanoma, 65.8 µM in the assay with SK-OV-3 ovarian, 86.7 µM in the assay with T-47D breast and greater than 100 µM with U251 CNS.

As for `O=C(CSc1n[nH]c(=O)[nH]c1=O)NNC(=O)c1cccc2nc3ccccc3nc12`, the TGI in the assay on A498 renal was greater than 100 µM; in the assay with COLO 205 colon it was greater than 100 µM; in the assay on IGROV1 ovarian it was greater than 100 µM; in the assay with MDA-N, 97.5 µM; in the assay on SF-268 CNS it was greater than 100 µM; in the assay on SF-295 CNS, greater than 100 µM. The TGI in the assay with SK-MEL-28 melanoma, in the assay on SK-OV-3 ovarian, in the assay on T-47D breast and in the assay on U251 CNS was greater than 100 µM throughout.

Turning to `NC(N)=NS(=O)(=O)c1ccc(NC(=O)c2ccc3nc4ccccc4c(Nc4ccc(S(=O)(=O)N=C(N)N)cc4)c3c2)cc1`, the TGI in the assay on A498 renal, in the assay with COLO 205 colon, in the assay on IGROV1 ovarian, in the assay on MDA-N, in the assay with SF-268 CNS and in the assay on SF-295 CNS was greater than 100 µM in each case. The TGI in the assay on SK-MEL-28 melanoma, with SK-OV-3 ovarian, with T-47D breast and in the assay with U251 CNS was greater than 100 µM in each case.

As for `Brc1ccc2c(-c3csc(-c4c[nH]c5cc(Br)ccc45)n3)c[nH]c2c1`, the TGI was greater than 83.5 µM in the assay on A498 renal; greater than 100 µM with COLO 205 colon; greater than 75.2 µM in the assay on IGROV1 ovarian; 13.4 µM in the assay with MDA-N; greater than 100 µM in the assay on SF-268 CNS; 45.5 µM with SF-295 CNS. The TGI in the assay on SK-MEL-28 melanoma is greater than 100 µM; in the assay with SK-OV-3 ovarian, 97.4 µM; in the assay with T-47D breast it was 98.7 µM; in the assay on U251 CNS, 32.1 µM.

For the molecule `Cc1cc2ncc3c(=O)n(NS(=O)(=O)c4ccc(N)cc4)ccc3n2n1`, the TGI in the assay on A498 renal, in the assay with COLO 205 colon, in the assay with IGROV1 ovarian, with MDA-N, in the assay with SF-268 CNS and in the assay with SF-295 CNS was greater than 100 µM throughout. Besides, the TGI with SK-MEL-28 melanoma, with SK-OV-3 ovarian, with T-47D breast and in the assay with U251 CNS was greater than 100 µM each time.

Consider `CC1(CNCc2ccccc2)CC(CCc2ccccc2)N(C(=O)c2ccc([N+](=O)[O-])cc2)C1Cc1ccc(O)cc1` (stereo not given), for which the TGI worked out at 26.7 µM in the assay with A498 renal; 19.4 µM in the assay with COLO 205 colon; 31.2 µM in the assay with IGROV1 ovarian; 27.1 µM with MDA-N; 27.6 µM in the assay with SF-268 CNS; 25.6 µM in the assay with SF-295 CNS. Moreover, the TGI is greater than 100 µM in the assay with SK-MEL-28 melanoma, 34.6 µM with SK-OV-3 ovarian, 18.8 µM in the assay on T-47D breast and 26.2 µM in the assay on U251 CNS.
